Source: PubChem BioAssay (NCI)
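Test compounds were applied to cells in 96-well plates for 48 hours at 5 doses. GI50: concentration for 50% inhibition of growth. At the TGI there is no net growth.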

Assays:
Test in all cases: NCI anticancer screen, dose series, 48 h
786-0 renal = tested on: 786-0 renal
A498 renal = tested on: A498 renal
A549 NSCLC = tested on: A549 NSCLC
ACHN renal = tested on: ACHN renal
BT-549 breast = tested on: BT-549 breast
CAKI-1 renal = tested on: CAKI-1 renal
CCRF-CEM leukemia = tested on: CCRF-CEM leukemia
COLO 205 colon = tested on: COLO 205 colon
DU-145 prostate = tested on: DU-145 prostate
EKVX NSCLC = tested on: EKVX NSCLC
HCC-2998 colon = tested on: HCC-2998 colon
HCT-116 colon = tested on: HCT-116 colon
HCT-15 colon = tested on: HCT-15 colon
HL-60(TB) leukemia = tested on: HL-60(TB) leukemia
HOP-62 NSCLC = tested on: HOP-62 NSCLC
HOP-92 NSCLC = tested on: HOP-92 NSCLC
HS 578T breast = tested on: HS 578T breast
HT29 colon = tested on: HT29 colon
IGROV1 ovarian = tested on: IGROV1 ovarian
K-562 leukemia = tested on: K-562 leukemia
KM12 colon = tested on: KM12 colon
LOX IMVI melanoma = tested on: LOX IMVI melanoma
M14 melanoma = tested on: M14 melanoma
MCF7 breast = tested on: MCF7 breast
MDA-MB-231 breast = tested on: MDA-MB-231 breast
MDA-MB-435 = tested on: MDA-MB-435
MOLT-4 leukemia = tested on: MOLT-4 leukemia
NCI-H23 lung = tested on: NCI-H23 lung
NCI-H460 lung = tested on: NCI-H460 lung
NCI-H522 lung = tested on: NCI-H522 lung
NCI/ADR-RES ovarian = tested on: NCI/ADR-RES ovarian
OVCAR-3 ovarian = tested on: OVCAR-3 ovarian
OVCAR-4 ovarian = tested on: OVCAR-4 ovarian
OVCAR-5 ovarian = tested on: OVCAR-5 ovarian
OVCAR-8 ovarian = tested on: OVCAR-8 ovarian
PC-3 prostate = tested on: PC-3 prostate
RXF 393 renal = tested on: RXF 393 renal
SF-268 CNS = tested on: SF-268 CNS
SF-295 CNS = tested on: SF-295 CNS
SF-539 CNS = tested on: SF-539 CNS
SK-MEL-2 melanoma = tested on: SK-MEL-2 melanoma
SK-MEL-28 melanoma = tested on: SK-MEL-28 melanoma
SK-MEL-5 melanoma = tested on: SK-MEL-5 melanoma
SN12C renal = tested on: SN12C renal
SNB-19 CNS = tested on: SNB-19 CNS
SR leukemia = tested on: SR leukemia
SW-620 colon = tested on: SW-620 colon
T-47D breast = tested on: T-47D breast
TK-10 renal = tested on: TK-10 renal
U251 CNS = tested on: U251 CNS
UACC-257 melanoma = tested on: UACC-257 melanoma
UACC-62 melanoma = tested on: UACC-62 melanoma
UO-31 renal = tested on: UO-31 renal
MALME-3M melanoma = tested on: MALME-3M melanoma
NCI-H226 lung = tested on: NCI-H226 lung
RPMI-8226 leukemia = tested on: RPMI-8226 leukemia
SK-OV-3 ovarian = tested on: SK-OV-3 ovarian
SNB-75 CNS = tested on: SNB-75 CNS

COc1cc2c3c(c1OC)C(=O)C(=O)C1=C3N(CCC1)CC2 gave a TGI (786-0 renal) of over 100 µM, a TGI (A498 renal) of 92.6 µM and a TGI (A549 NSCLC) of over 100 µM. It also gave a TGI (ACHN renal) of over 100 µM, a TGI (BT-549 breast) of 72.6 µM and a TGI (CAKI-1 renal) of over 100 µM. It also gave a TGI (CCRF-CEM leukemia) of 80.4 µM, a TGI (COLO 205 colon) of 35.3 µM and a TGI (DU-145 prostate) of over 100 µM. The TGI (EKVX NSCLC) was 64.8 µM, the TGI (HCC-2998 colon) was over 100 µM and the TGI (HCT-116 colon) was 47.3 µM. For the same molecule, the TGI (HCT-15 colon) was over 100 µM, the TGI (HL-60(TB) leukemia) was 70.4 µM and the TGI (HOP-62 NSCLC) was 96.9 µM. It also gave a TGI (HOP-92 NSCLC) of 60.4 µM, a TGI (HS 578T breast) of 47.6 µM and a TGI (HT29 colon) of over 100 µM. For the same molecule, the TGI (IGROV1 ovarian) was over 100 µM, the TGI (K-562 leukemia) was 71.8 µM and the TGI (KM12 colon) was 44.5 µM. The TGI (LOX IMVI melanoma) was over 100 µM, the TGI (M14 melanoma) was 70 µM and the TGI (MCF7 breast) was 37.2 µM. It also gave a TGI (MDA-MB-231 breast) of over 100 µM, a TGI (MDA-MB-435) of 53.8 µM and a TGI (MOLT-4 leukemia) of 56.3 µM. For the same molecule, the TGI (NCI-H23 lung) was 86.3 µM, the TGI (NCI-H460 lung) was 37.5 µM and the TGI (NCI-H522 lung) was 72.2 µM. It also gave a TGI (NCI/ADR-RES ovarian) of over 100 µM, a TGI (OVCAR-3 ovarian) of 73.3 µM and a TGI (OVCAR-4 ovarian) of 62.2 µM. The TGI (OVCAR-5 ovarian) was over 100 µM, the TGI (OVCAR-8 ovarian) was over 100 µM and the TGI (PC-3 prostate) was over 100 µM. For the same molecule, the TGI (RXF 393 renal) was over 100 µM, the TGI (SF-268 CNS) was 92.1 µM and the TGI (SF-295 CNS) was 76.9 µM. For the same molecule, the TGI (SF-539 CNS) was 80.1 µM, the TGI (SK-MEL-2 melanoma) was over 100 µM and the TGI (SK-MEL-28 melanoma) was over 100 µM. For the same molecule, the TGI (SK-MEL-5 melanoma) was over 100 µM, the TGI (SN12C renal) was over 100 µM and the TGI (SNB-19 CNS) was over 100 µM. The TGI (SR leukemia) was 55.5 µM, the TGI (SW-620 colon) was over 100 µM and the TGI (T-47D breast) was over 100 µM. For the same molecule, the TGI (TK-10 renal) was over 100 µM, the TGI (U251 CNS) was over 100 µM and the TGI (UACC-257 melanoma) was 67 µM. The TGI (UACC-62 melanoma) was 42 µM and the TGI (UO-31 renal) was over 100 µM.

In the case of CCCCCC(=C/c1ccccc1)/C=N/N=C(N)N, the GI50 (786-0 renal) is reported as 1.6 µM, the TGI (786-0 renal) is reported as 3 µM and the GI50 (A498 renal) is reported as 0.621 µM. For the same molecule, the TGI (A498 renal) was 1.99 µM, the GI50 (A549 NSCLC) was 1.73 µM and the TGI (A549 NSCLC) was 3.23 µM. It also gave a GI50 (ACHN renal) of 1.69 µM, a TGI (ACHN renal) of 3.28 µM and a GI50 (BT-549 breast) of 1.65 µM. For the same molecule, the TGI (BT-549 breast) was 3.02 µM, the GI50 (CAKI-1 renal) was 5.16 µM and the TGI (CAKI-1 renal) was 21.2 µM. It also gave a GI50 (CCRF-CEM leukemia) of 2 µM, a TGI (CCRF-CEM leukemia) of 5.04 µM and a GI50 (COLO 205 colon) of 1.65 µM. The TGI (COLO 205 colon) was 3.17 µM, the GI50 (DU-145 prostate) was 1.57 µM and the TGI (DU-145 prostate) was 2.94 µM. The GI50 (EKVX NSCLC) was 4.03 µM, the TGI (EKVX NSCLC) was 19.1 µM and the GI50 (HCT-116 colon) was 1.32 µM. It also gave a TGI (HCT-116 colon) of 2.72 µM, a GI50 (HCT-15 colon) of 1.99 µM and a TGI (HCT-15 colon) of 5 µM. For the same molecule, the GI50 (HL-60(TB) leukemia) was 0.451 µM, the TGI (HL-60(TB) leukemia) was 1.96 µM and the GI50 (HOP-62 NSCLC) was 1.63 µM. For the same molecule, the TGI (HOP-62 NSCLC) was 3.31 µM, the GI50 (HOP-92 NSCLC) was 1.45 µM and the TGI (HOP-92 NSCLC) was 3.19 µM. It also gave a GI50 (HS 578T breast) of 1.8 µM, a TGI (HS 578T breast) of 4.18 µM and a GI50 (HT29 colon) of 1.58 µM. The TGI (HT29 colon) was 3.27 µM, the GI50 (IGROV1 ovarian) was 1.32 µM and the TGI (IGROV1 ovarian) was 2.72 µM. It also gave a GI50 (KM12 colon) of 1.43 µM, a TGI (KM12 colon) of 2.82 µM and a GI50 (LOX IMVI melanoma) of 1.44 µM. The TGI (LOX IMVI melanoma) was 3.02 µM, the GI50 (M14 melanoma) was 1.56 µM and the TGI (M14 melanoma) was 3.09 µM. For the same molecule, the GI50 (MALME-3M melanoma) was 1.51 µM, the TGI (MALME-3M melanoma) was 3.12 µM and the GI50 (MCF7 breast) was 1.34 µM. The TGI (MCF7 breast) was 2.74 µM, the GI50 (MDA-MB-435) was 1.7 µM and the TGI (MDA-MB-435) was 3.28 µM. For the same molecule, the GI50 (MOLT-4 leukemia) was 1.53 µM, the TGI (MOLT-4 leukemia) was 3.51 µM and the GI50 (NCI-H226 lung) was 2.2 µM. It also gave a TGI (NCI-H226 lung) of 5.51 µM, a GI50 (NCI-H23 lung) of 1.47 µM and a TGI (NCI-H23 lung) of 3.12 µM. The GI50 (NCI-H460 lung) was 1.57 µM, the TGI (NCI-H460 lung) was 3.13 µM and the GI50 (NCI/ADR-RES ovarian) was 1.53 µM. The TGI (NCI/ADR-RES ovarian) was 3.3 µM, the GI50 (OVCAR-3 ovarian) was 1.27 µM and the TGI (OVCAR-3 ovarian) was 2.56 µM. It also gave a GI50 (OVCAR-4 ovarian) of 1.46 µM, a TGI (OVCAR-4 ovarian) of 2.84 µM and a GI50 (OVCAR-5 ovarian) of 1.74 µM. For the same molecule, the TGI (OVCAR-5 ovarian) was 3.69 µM, the GI50 (OVCAR-8 ovarian) was 1.74 µM and the TGI (OVCAR-8 ovarian) was 3.54 µM. It also gave a GI50 (PC-3 prostate) of 1.4 µM, a TGI (PC-3 prostate) of 2.92 µM and a GI50 (RPMI-8226 leukemia) of 1.42 µM. For the same molecule, the TGI (RPMI-8226 leukemia) was 3.55 µM, the GI50 (RXF 393 renal) was 1.72 µM and the TGI (RXF 393 renal) was 3.15 µM. The GI50 (SF-268 CNS) was 1.45 µM, the TGI (SF-268 CNS) was 2.99 µM and the GI50 (SF-295 CNS) was 1.67 µM. For the same molecule, the TGI (SF-295 CNS) was 3.49 µM, the GI50 (SF-539 CNS) was 1.95 µM and the TGI (SF-539 CNS) was 3.71 µM. For the same molecule, the GI50 (SK-MEL-2 melanoma) was 1.7 µM, the TGI (SK-MEL-2 melanoma) was 3.2 µM and the GI50 (SK-MEL-28 melanoma) was 1.65 µM. The TGI (SK-MEL-28 melanoma) was 3.06 µM, the GI50 (SK-MEL-5 melanoma) was 1.66 µM and the TGI (SK-MEL-5 melanoma) was 3.04 µM. The GI50 (SK-OV-3 ovarian) was 2.95 µM, the TGI (SK-OV-3 ovarian) was 10.8 µM and the GI50 (SNB-19 CNS) was 1.85 µM. It also gave a TGI (SNB-19 CNS) of 4.15 µM, a GI50 (SNB-75 CNS) of 1.35 µM and a TGI (SNB-75 CNS) of 2.7 µM. It also gave a GI50 (SW-620 colon) of 1.52 µM, a TGI (SW-620 colon) of 3.16 µM and a GI50 (T-47D breast) of 1.65 µM. It also gave a TGI (T-47D breast) of 3.62 µM, a GI50 (TK-10 renal) of 1.75 µM and a TGI (TK-10 renal) of 3.32 µM. The GI50 (U251 CNS) was 1.7 µM, the TGI (U251 CNS) was 3.18 µM and the GI50 (UACC-257 melanoma) was 1.45 µM. It also gave a TGI (UACC-257 melanoma) of 2.83 µM, a GI50 (UO-31 renal) of 1.19 µM and a TGI (UO-31 renal) of 2.5 µM.
